Test system: human colon cancer cell strain colon 38
Test: Anti-tumor effect with 5-fluorouracil in human cancer xenograft tumor animal model
Format: in vivo
Details: after 4 weeks
Source text: According to methods described in “Methodology in Pharmacological Research of Traditional Chinese Medicine” (People's Medical Publishing House), test the anti-tumor effects of Formula A, B, C, D traditional Chinese medicine composition prepared from Embodiment 1-4 along with chemotherapy drugs (5-fluorouracil) for human cancer xenograft tumor animal model. 5-fluorouracil (fu) is broad spectrum anti-tumor medicine, it is mainly used to treat digestive tract tumor, commonly seen adverse reactions include nausea, reduced appetite or vomit, abdomen discomfort or diarrhea. About the test method, use human colon cancer cell strain colon 38 to inoculate subcutaneously in 18-23 g mouse, 14 days after the inoculation, respectively ingest Formula A, B, C, D traditional Chinese medicine composition prepared from Embodiment 1-4 into the stomach of each group of animals, the dosage is 500 mg/kg; 0.5-1 hour after stomach ingestion, inject 5-fluorouracil into abdomen, the dosage is 30 mg/kg. Execute stomach ingestion and drug injection twice each week, totaling 4 weeks.

SMILES: O=c1[nH]cc(F)c(=O)[nH]1 [fu, 5-fluorouracil]
- Average tumor weight (formula 500 mg/kg into stomach, fu 30 mg/kg into abdomen, twice each week): 0.42 ± 0.11 g
- Death number (of 10 supplied mice): 5
- Tumor inhibition rate (%) (versus CK group's average tumor weight): 64%

Reference: patent publication US20120231097A1, “MEDICINAL COMPOSITION AND USAGE” (priority 2009, published 2012)
